Reference: paper PMC9502539, “1,2,3-Triazole-Benzofused Molecular Conjugates as Potential Antiviral Agents against SARS-CoV-2 Virus Variants” (Life, 2022)
Read-outs that look alike come from different tables or passages of the source.

Target: Omicron spike protein (Severe acute respiratory syndrome coronavirus 2, UniProt P0DTC2, E484A/G339D/G446S/G496S/K417N/N440K/N501Y/Q493R/Q498R/S371L/S373P/S375F/S477N/T478K/Y505H)
Format: binding, SARS-CoV-2 Omicron variant (B.1.1.529 BA.1)

| SMILES | remaining activity % of omicron spike proteins (0.1 µM) [%] | remaining activity % of omicron spike proteins (0.2 µM) [%] | remaining activity % of omicron spike proteins (0.5 µM) [%] | remaining activity % of omicron spike proteins (0.75 µM) [%] | remaining activity % of omicron spike proteins (1 µM) [%] |
| --- | --- | --- | --- | --- | --- |
| CC(C)(O/N=C(\C(=O)N[C@@H]1C(=O)N2C(C(=O)[O-])=C(C[n+]3ccccc3)CS[C@H]12)c1csc(N)n1)C(=O)O [Ceftazidime, ceftazidime, reference compound] | 89 | 68 | 54 | 44 | 34 |
| O=C(Cn1cc(CSc2nc3ccccc3n2Cc2cn(CC(=O)NNC(=S)Nc3ccccc3)nn2)nn1)NNC(=S)Nc1ccccc1 [compound 4] | 73.1 | 40 | 20 | 10 | 8 |
| O=C(Cn1cc(CSc2nc3ccccc3n2Cc2cn(CC(=O)NNC(=S)Nc3ccc(F)cc3)nn2)nn1)NNC(=S)Nc1ccc(F)cc1 [compound 5] | 82 | 38.7 | 30 | 20 | 16 |
| S=c1[nH]nc(Cn2cc(CSc3nc4ccccc4n3Cc3cn(Cc4n[nH]c(=S)n4-c4ccccc4)nn3)nn2)n1-c1ccccc1 [compound 6] | 79 | 45.6 | 29 | 16 | 10 |
| Nn1c(Cn2cc(CSc3nc4ccccc4n3Cc3cn(Cc4n[nH]c(=S)n4N)nn3)nn2)n[nH]c1=S [compound 7] | 85 | 43 | 40 | 35 | 30 |
| Cc1onc(NS(=O)(=O)c2ccc(-n3cc(CSc4nc5ccccc5n4Cc4cn(-c5ccc(S(=O)(=O)Nc6noc(C)c6C)cc5)nn4)nn3)cc2)c1C [compound 9] | 65.8 | 30.4 | 10.3 | 5.1 | 2 |
| Cc1ccc2nc(NC(=O)Cn3cc(CN4C(=O)C(=O)c5ccccc54)nn3)sc2c1 [compound 12] | 94 | 90 | 82 | 74 | 59 |
